Measured values: patent publication US7943775B2, “Small molecules for imaging protein-protein interactions” (The United States of America as represented by the …, priority 2006, dated 2011)

Key:
Biotin-labeled amyloid-β [1] = biological target: T1, Biotin-labeled amyloid-β (Homo sapiens, UniProt P05067); assay: Dose response assay, plate-coated test compounds at 6 concentrations vs biotin-labeled amyloid β; type: binding; conditions: biotin-labeled amyloid at 1 μM; compounds coated at 6 concentrations
T1 sequence (P05067 672-711 limits assumed): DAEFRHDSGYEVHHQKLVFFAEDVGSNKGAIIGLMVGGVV
Protocol: Step 1. Coating the plate. The four compounds 3a, 3b, 3c, and 3d were diluted to 6 different concentrations in the same coating buffer used in the ELISA. The resulting solutions were applied to individual wells of a 96-well polystyrene microtiter plate at 100 μL/well. The plate was then sealed and allowed to incubate at 4° C. for at least 8 hours.
Step 2. Washing the plate. The sample solutions were then removed and the plate was washed twice with 300 μL/well of the same washing solution used in the ELISA.
Step 3. Blocking. The blocking buffer used in the ELISA was added at a volume of 150 μL/well, and the plate was incubated at room temperature for 2 hours.
Step 4. Sampling. The blocking buffer was removed and biotin-labeled amyloid P was added to each well at a concentration of 1 μM in the same binding buffer used in the ELISA. The solution in each well was then mixed by being drawn into and ejected from a pipette 15 times. The plate was then gently agitated for further mixing. After mixing, the plate was covered and incubated at room temperature overnight.
Step 5. Washing. The solution in each well was discarded and the plate was washed three times with 170 μL/well of the washing solution described above.
Step 6. Binding with avidin-HRP and substrate. NeutrAvidinHRP solution was added to each well at 0.01 μg/well. The wells were then covered and incubated at room temperature for 30 minutes. The solution in each well was discarded and the plate was washed 3 times with the above-referenced washing solution at 170 μL/well of washing solution. The chemiluminescent substrate solution of the ELISA was then added at 100 μL/well, and luminescence was read using the Wallac Victor 1420 Multilabel Counter.
Step 7. Reading and calculations. Values for average luminescence vs. concentration were developed in the same manner as in the ELISA. From these values were determined EC50 values for each of the four test compounds as β-amyloid-binding portion candidates.

Biotin-labeled amyloid-β [2] = biological target: T1, Biotin-labeled amyloid-β; assay: ELISA assay, binding of biotin-labeled amyloid-β to plate-coated test compounds; conditions: compound coated at 1 μM
Protocol: Step 1. Sample Solution Preparations. For each test compound, four samples and two standard solutions using Thioflavin-T as the standard were prepared in a coating buffer, each to a final concentration of 1 μM. The coating buffer was 50 mM Tris (Trizma Base from Sigma Aldrich, Inc., St. […] Step 2. Coating the Plate. The sample solutions were applied to individual wells of a 96-well polystyrene microtiter plate at 100 μL/well. The plates were sealed and allowed to incubate at 4° C. for at least 8 hours. Step 3. Washing the Plate. The sample solutions were removed and the plate was washed two times with 300 μL/well of washing solution, which consisted of a 1 to 25 dilution in water of DELFIA® Wash Concentrate (PerkinElmer Life Sciences, Inc., Boston, Mass., USA). Step 4. Blocking. Blocking was achieved by adding 150 μL/well of a blocking buffer which consisted of a 1 to 20 dilution in water of Milk Diluent/Blocking Solution Concentrate (from KPL, Inc., Gaithersburg, Md., USA). The plate was then incubated at room temperature for 2 hours. Step 5. Sampling. Biotin-labeled amyloid-β was dissolved in a binding buffer to form a 1 μM solution of the amyloid-β. The binding buffer was a mixture of a coating buffer with the blocking buffer of Step 4 in a 90:10 ratio by volume. […] The dilutions were performed in quadruplicate, thus resulting in four sets of wells for each test compound. Step 6. Mixing. The solution in each well was mixed by being drawn into and ejected from a pipette 15 times. The plate was then gently agitated for further mixing. The plate was then covered and incubated at room temperature overnight. Step 7. Washing. The solution in each well was discarded and the plate was washed three times with 170 μL/well of the washing solution described above. Step 8. Binding with avidin-HRP. NeutrAvidinHRP solution was added to each well at 0.01 μg/well. The wells were then covered and incubated at room temperature for 30 minutes. Step 9. Substrate addition. The solution in each well was discarded and the plate was washed 3 times with the above-referenced washing solution at 170 μL/well of washing solution. A chemiluminescent substrate solution which was a mixture of equal volumes of LumiGLO Substrate A and LumiGLO Substrate B from KPL, Inc., was then added at 100 μL/well. Step 10. Fluorescence measurement and calculations. Luminescence was read on a Wallac Victor 1420 Multilabel Reader (PerkinElmer Life Sciences, Inc., Boston, Mass., USA). […] Average luminescence concentrations in counts per second (CPS) for each of the four β-amyloid-binding portion candidates at each dilution of the biotin-labeled β-amyloid are shown in Table I below.

FKBP12 = biological target: T2, FKBP12 (Homo sapiens, UniProt P62942); assay: ELISA screening of candidates for the chaperone binding portion (FKBP12); conditions: for Average Luminescence Concentration (CPS): compound coated at 1 μM; for binding affinity to chaperone FKBP12, in words: comparison of the four isomers
T2 construct: His (6xHis); made in house; host or cells: E. coli BL21-AI
T2 sequence (P62942 whole entry): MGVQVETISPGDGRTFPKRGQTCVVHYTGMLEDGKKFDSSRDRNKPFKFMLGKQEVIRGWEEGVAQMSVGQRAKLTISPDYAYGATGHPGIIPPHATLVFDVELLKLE
Protocol: The following four compounds, synthesized as described in, or in a manner analogous to the description in, Example 3, were tested for their suitability as candidates for the chaperone binding portion of the construct of this invention. The chaperone to which binding was evaluated was FKBP12 and, screening was performed by ELISA.
Step 1. Sample Solutions. Four samples of each of the test compounds were prepared by dissolving the compounds in the coating buffer described in Example 2 to a final concentration of 1 μM.
Step 2. Coating the Plate. The wells of a 96-well microtiter plate were coated with the sample solutions at 100 μL/well. The plates were then sealed and allowed to incubate at 4° C. for at least 8 hours.
Step 3. Washing the Plate. The coating solution was removed from the wells and the plate was washed two times with the washing solution of Example 2 at 300 μL/well.
Step 4. Blocking. The blocking buffer used in Example 2 was added at a volume of 150 μL/well, and the plate was incubated at room temperature for 2 hours.
Step 5. Sampling. Biotin-labeled FKBP12 was dissolved in a binding buffer to form a 1 μM solution. The binding buffer was a mixture of a coating buffer with the blocking buffer of Step 4 in a 90:10 ratio by volume. The coating buffer consisted of 50 mM Tris (Trizma Base from Sigma-Aldrich), 150 mM NaCl, 1 mM CaCl2, 1mM MgCl2, 1 mM MnCl2, pH=7.4 in redistilled water. Once blocking had been completed in Step 4, the blocking buffer was removed from each well, and the biotin-labeled […] solution was placed in one of the wells for each of the four test compounds, together with additional blocking buffer for a total volume of 125 μL in the well. Dilutions were then prepared to achieve final concentrations per well of […]. The dilutions were performed in quadruplicate, thus resulting in four sets of wells for each test compound. The procedures used for cloning, expression, and purification of FKBP12 are provided at the end of this example.
Step 6. Mixing. The solution in each well was mixed by being drawn into and ejected from a pipette 15 times. The plate was then gently agitated to achieve thorough mixing. After mixing, the plate was covered and incubated at room temperature overnight.
Step 7. Washing. The solution in each well was discarded and the plate was washed three times with 170 μL/well of the washing solution of Example 2.
Step 8. Binding with avidin-HRP. NeutrAvidinHRP solution was added to each well at 0.01 μg (100 μL)/well. The wells were then covered and incubated at room temperature for 30 minutes.
Step 9. Substrate addition. The solution in each well was discarded and the plate was washed 3 times with the above-referenced washing solution at 170 μL/well of washing solution. A chemiluminescent substrate solution was then added at 100 μL/well.
Step 10. Fluorescence measurement and calculations.

[3] = β-Amyloid Dilution 10 (μL/well)
[4] = β-Amyloid Dilution 20 (μL/well)
[5] = β-Amyloid Dilution 30 (μL/well)
[6] = β-Amyloid Dilution 40 (μL/well)
[7] = Concentration 1 (μM/well) biotin-labeled FKBP12
[8] = Concentration 5 (μM/well) biotin-labeled FKBP12
[9] = Concentration 10 (μM/well) biotin-labeled FKBP12
[10] = Concentration 20 (μM/well) biotin-labeled FKBP12
[11] = Concentration 30 (μM/well) biotin-labeled FKBP12
[12] = Concentration 40 (μM/well) biotin-labeled FKBP12

SMILES | EC50 (Biotin-labeled amyloid-β [1]) | Average Luminescence Concentration (CPS) (Biotin-labeled amyloid-β [2]; β-Amyloid Dilution 1 (μL/well)) | Average Luminescence Concentration (CPS) (Biotin-labeled amyloid-β [2]; β-Amyloid Dilution 5 (μL/well)) | Average Luminescence Concentration (CPS) (Biotin-labeled amyloid-β [2]; [3]) | Average Luminescence Concentration (CPS) (Biotin-labeled amyloid-β [2]; [4]) | Average Luminescence Concentration (CPS) (Biotin-labeled amyloid-β [2]; [5]) | Average Luminescence Concentration (CPS) (Biotin-labeled amyloid-β [2]; [6]) | Average Luminescence Concentration (CPS) (FKBP12; [7]) | Average Luminescence Concentration (CPS) (FKBP12; [8]) | Average Luminescence Concentration (CPS) (FKBP12; [9]) | Average Luminescence Concentration (CPS) (FKBP12; [10]) | Average Luminescence Concentration (CPS) (FKBP12; [11]) | Average Luminescence Concentration (CPS) (FKBP12; [12]) | binding affinity to chaperone FKBP12, in words (FKBP12)
NCCCCCNC(=O)c1ccccc1Nc1cccc(C(F)(F)F)c1 [3d] | 35.8 µM | 105 CPS | 220 CPS | 678 CPS | 1461 CPS | 2662 CPS | 2579 CPS |  |  |  |  |  |  | 
NCCCNC(=O)c1ccccc1Nc1cccc(C(F)(F)F)c1 [3b] | 31.9 µM | 878 CPS | 1325 CPS | 1694 CPS | 2184 CPS | 4629 CPS | 4788 CPS |  |  |  |  |  |  | 
NCCCCNC(=O)c1ccccc1Nc1cccc(C(F)(F)F)c1 [3c] | 36.2 µM | 32 CPS | 74 CPS | 3128 CPS | 161 CPS | 2968 CPS | 3025 CPS |  |  |  |  |  |  | 
CCC(C)(C)C(=O)C(=O)N1CCCC[C@H]1C(=O)O[C@@H](CCc1ccc(OC)c(OC)c1)c1ccc(OCC(=O)O)cc1 [9-SR] |  |  |  |  |  |  |  | 762 CPS | 1050 CPS | 1218 CPS | 1410 CPS | 1478 CPS | 1392 CPS | 
Cc1ccc2c(c1)sc(-c1ccc(N(C)C)cc1)[n+]2C.[Cl-] [Thioflavin-T, reference compound] |  | 940 CPS | 570 CPS | 731 CPS | 86 CPS | 2311 CPS | 5140 CPS |  |  |  |  |  |  | 
NCCNC(=O)c1ccccc1Nc1cccc(C(F)(F)F)c1 [3a, N-(2-amino-ethyl)-2-(3-trifluoromethyl-phenylamino)-benzamide] | 50.4 µM | 323 CPS | 816 CPS | 1453 CPS | 2072 CPS | 3072 CPS | 2986 CPS |  |  |  |  |  |  | 
CCC(C)(C)C(=O)C(=O)N1CCCC[C@H]1C(=O)O[C@H](CCc1ccc(OC)c(OC)c1)c1ccc(OCC(=O)O)cc1 [9-RS, (1R)-1-[4-(carboxymethoxy)phenyl]-3-(3,4-dimethoxy-phenyl)-1-propanyl (2S)-1-(3,3-dimethyl-1,2-dioxopentyl)-2-piperidinecarboxylate] |  |  |  |  |  |  |  | 1399 CPS | 1688 CPS | 1685 CPS | 2006 CPS | 4244 CPS | 5509 CPS | 
CCC(C)(C)C(=O)C(=O)N1CCCC[C@H]1C(=O)O[C@@H](CCc1ccc(OC)c(OC)c1)c1ccc(OCC(=O)O)cc1 [9-RR] |  |  |  |  |  |  |  | 660 CPS | 1158 CPS | 769 CPS | 371 CPS | 1297 CPS | 1138 CPS | low or moderate binding affinity
CCC(C)(C)C(=O)C(=O)N1CCCC[C@H]1C(=O)O[C@@H](CCc1ccc(OC)c(OC)c1)c1ccc(OCC(=O)O)cc1 [9-SS] |  |  |  |  |  |  |  | 297 CPS | 876 CPS | 931 CPS | 579 CPS | 1366 CPS | 1231 CPS | low or moderate binding affinity
